# Test results reported in patent publication US11254680B2, “Cyclic iminopyrimidine derivatives as kinase inhibitors” (ABM Therapeutics Corporation, priority 2017, dated 2022).
# Test system: A375 melanoma cells
# Assay: Antiproliferation assay in A375 cell line by CellTiter Glo
# Format: cell-based
# Conditions: Homo sapiens, A-375, 72 hours or 144 hours
# Procedure: In vitro anti-proliferation study of test compounds in A375 cell line by CellTiter Glo. The cells were routinely maintained as a monolayer culture in corresponding culture medium, at 37° C. with 5% CO2 in air.
# Harvest the exponential growth cells by trypsin-EDTA digestion. Re-suspend the cell pellet in fresh culture medium, and adjust the concentration to needed (the cell density per well was listed in following form). The cell viability is over 98% by Trypan blue staining. Inoculate cells into 96 wells plates according to the plate map (90 μL/well). Incubate the plates at 37° C. and 5% CO2 overnight. The next day, prepare the 10×compound containing medium according to the plate map. Transfer 10 μL of 10×compound containing medium into each well of the assay plates (the final DMSO concentration is 0.5%). Gently mix the medium and incubate at 37° C. and 5% CO2 for another 72 hours or 144 hours.
# Prepare the reagent according to the manufacture's instruction. Add 50 μL CellTiter-Glo Reagent in each well. Mix contents for 2 minutes on an orbital shaker to induce cell lysis. Allow the plate to incubate at room temperature for 10 minutes to stabilize luminescent signal. Transfer 100 μL of reaction contents of each well from the clear plates into white walled/white opaque 96-well plates. Record the luminescence on Envision.
# Using the luminescence measurements [time zero (T0), control growth (C), and test growth in the presence of drug at the six concentration levels (Ti)], the percentage growth is calculated at each of the drug concentrations levels.
# Percentage growth inhibition (GI) is calculated as: GI (%)═[(Ti-T0)/(C-T0)]×100 for concentrations for which Ti>=T0, and GI (%)═[(Ti-T0)/T0]×100 for concentrations for which Ti<T0. Data were analyzed using the XLFit (Excel) tool, fitting to a 4-parameter equation to generate concentration response curves. Concentration of compound that inhibits 50% of control cell growth (GI50) was back-interpolated when y=50% of net growth of DMSO treated control wells using nonlinear regression with the equation: f(x) 205 [fit=(A+((B−A)/(1+((C/x)^))))], where A is the minimum response (Ymin), B is the maximum response (Ymax), C is the inflection point of the curve (Re GI50) and D is the Hill coefficient. Growth inhibition of 50% (GI50) was calculated at the 50% Growth inhibition on the curve. Index values were the sum of Inhibition rate (IR) at each tested compound concentration.
row,SMILES,GI50 [nM]
1,"CCCS(=O)(=O)Nc1cccc(Oc2cc3c(cn2)N=CN2CCCN=C32)c1C#N [Compound 27, N-(2-Cyano-3-((3,4-dihydro-2H-pyrido[4,3-e]pyrimido[1,2-c]pyrimidin-10-yl)oxy)phenyl)propane-1-sulfonamide]",100 to 1000
2,"CCCS(=O)(=O)Nc1cccc(Oc2ccc3c(c2)C2=NCCCCN2C=N3)c1C#N [Compound 28, N-(2-Cyano-3-((2,3,4,5-tetrahydro-[1,3]diazepino[1,2-c]quinazolin-11-yl)oxy)phenyl)propane-1-sulfonamide]",> 1000
3,"CCCS(=O)(=O)Nc1ccnc(Oc2ccc3c(c2)C2=NCCCN2C=N3)c1C#N [Compound 25, N-(3-Cyano-2-((3,4-dihydro-2H-pyrimido[1,2-c]quinazolin-10-yl)oxy)pyridin-4-yl)propane-1-sulfonamide]",> 1000
4,"CCCS(=O)(=O)Nc1c([N+](=O)[O-])ccc(Oc2ccc3c(c2)C2=NCCCN2C=N3)c1F [Compound 19, N-(3-((3,4-Dihydro-2H-pyrimido[1,2-c]quinazolin-10-yl)oxy)-2-fluoro-6-nitrophenyl)propane-1-sulfonamide]",> 1000
5,"CCCS(=O)(=O)Nc1cc(Oc2ccc3c(c2)C2=NCCN2C=N3)ccc1F [Compound 51, N-(5-((2,3-Dihydroimidazo[1,2-c]quinazolin-9-yl)oxy)-2-fluorophenyl)propane-1-sulfonamide]",> 1000
6,"CCCS(=O)(=O)Nc1c(F)cc(F)c(Oc2ccc3c(c2)C2=NCCN2C=N3)c1C#N [Compound 4, N-(2-Cyano-3-((2,3-dihydroimidazo[1,2-c]quinazolin-9-yl)oxy)-4,6-difluorophenyl)propane-1-sulfonamide]",100 to 1000
7,"O=S(=O)(Nc1cc(Oc2ccc3c(c2)C2=NCCN2C=N3)ccc1F)N1CCCC1 [Compound 49, N-(5-((2,3-Dihydroimidazo[1,2-c]quinazolin-9-yl)oxy)-2-fluorophenyl)pyrrolidine-1-sulfonamide]",> 1000
8,"CCCS(=O)(=O)Nc1ccnc(Oc2ccc3c(c2)C2=NCCCN2C=N3)c1[N+](=O)[O-] [Compound 22, N-(2-((3,4-Dihydro-2H-pyrimido[1,2-c]quinazolin-10-yl)oxy)-3-nitropyridin-4-yl)propane-1-sulfonamide]",> 1000
9,"CCCS(=O)(=O)Nc1ccc(F)c(Oc2ccc3c(c2)C2=NCCN2C=N3)c1F [Compound 10, N-(3-((2,3-Dihydroimidazo[1,2-c]quinazolin-9-yl)oxy)-2,4-difluorophenyl)propane-1-sulfonamide]",> 1000
10,"CCN(C)S(=O)(=O)Nc1cccc(Oc2ccc3c(c2)C2=NCCN2C=N3)c1Cl [Compound 45, N-(2-Chloro-3-((2,3-dihydroimidazo[1,2-c]quinazolin-9-yl)oxy)phenyl)-N-ethyl-N-methylamino-1-sulfonamide]",> 1000
11,"O=S(=O)(CCCO)Nc1cccc(Oc2ccc3c(c2)C2=NCCCN2C=N3)c1Cl [Compound 39, N-(2-Chloro-3-((3,4-dihydro-2H-pyrimido[1,2-c]quinazolin-10-yl)oxy)phenyl)-3-hydroxypropane-1-sulfonamide]",100 to 1000
12,"CCCS(=O)(=O)Nc1nccc(Oc2ccc3c(c2)C2=NCCCN2C=N3)c1C#N [Compound 24, N-(3-Cyano-4-((3,4-dihydro-2H-pyrimido[1,2-c]quinazolin-10-yl)oxy)pyridin-2-yl)propane-1-sulfonamide]",> 1000
13,"CCCS(=O)(=O)Nc1cccc(N(C)c2cc3c(cn2)N=CN2CCCN=C32)c1C#N [Compound 42, N-(2-Cyano-3-((3,4-dihydro-2H-pyrido[4,3-e]pyrimido[1,2-c]pyrimidin-10-yl)(methyl)amino)phenyl)propane-1-sulfonamide]",> 1000
14,"CCCS(=O)(=O)Nc1cccc(Nc2cc3c(cn2)N=CN2CCCN=C32)c1C#N [Compound 43, N-(2-Cyano-3-((3,4-dihydro-2H-pyrido[4,3-e]pyrimido[1,2-c]pyrimidin-10-yl)amino)phenyl)propane-1-sulfonamide]",100 to 1000
15,"CCCS(=O)(=O)Nc1ccc([N+](=O)[O-])c(Oc2ccc3c(c2)C2=NCCN2C=N3)c1F [Compound 7, N-(3-((2,3-Dihydroimidazo[1,2-c]quinazolin-9-yl)oxy)-2-fluoro-4-nitrophenyl)propane-1-sulfonamide]",> 1000
16,"CCCS(=O)(=O)Nc1cccc(Oc2ccc3c(c2)C2=NCCN2C=N3)c1N [Compound 13, N-(2-Amino-3-((2,3-dihydroimidazo[1,2-c]quinazolin-9-yl)oxy)phenyl)propane-1-sulfonamide]",> 1000
17,"CCCS(=O)(=O)Nc1ccc(N)c(Oc2ccc3c(c2)C2=NCCN2C=N3)c1F [Compound 8, N-(4-Amino-3-((2,3-dihydroimidazo[1,2-c]quinazolin-9-yl)oxy)-2-fluorophenyl)propane-1-sulfonamide]",> 1000
18,"CCCS(=O)(=O)Nc1c(N)ccc(Oc2ccc3c(c2)C2=NCCCN2C=N3)c1F [Compound 20, N-(6-Amino-3-((3,4-dihydro-2H-pyrimido[1,2-c]quinazolin-10-yl)oxy)-2-fluorophenyl)propane-1-sulfonamide]",> 1000

# Now from value to molecule:
row,GI50 [nM],SMILES
1,< 100,"O=S(=O)(CCCF)Nc1cccc(Oc2ccc3c(c2)C2=NCCCN2C=N3)c1Cl [Compound 38, N-(2-Chloro-3-((3,4-dihydro-2H-pyrimido[1,2-c]quinazolin-10-yl)oxy)phenyl)-3-fluoropropane-1-sulfonamide]"
2,< 100,"O=S(=O)(Nc1cccc(Oc2ccc3c(c2)C2=NCCCN2C=N3)c1Cl)N1CC[C@@H](F)C1 [Compound 40, (R)—N-(2-Chloro-3-((3,4-dihydro-2H-pyrimido[1,2-c]quinazolin-10-yl)oxy)phenyl)-3-fluoropyrrolidine-1-sulfonamide]"
3,< 100,"CN(CCF)S(=O)(=O)Nc1cccc(Oc2ccc3c(c2)C2=NCCN2C=N3)c1Cl [Compound 47, N-(2-Chloro-3-((2,3-dihydroimidazo[1,2-c]quinazolin-9-yl)oxy)phenyl)-(2-fluoroethyl)(methyl)amino-1-sulfonamide]"
4,< 100,"CCCS(=O)(=O)Nc1cccc(Oc2ccc3c(c2)C2=NC(C)(C)CN2C=N3)c1Cl [Compound 55, N-(2-Chloro-3-((2,2-dimethyl-2,3-dihydroimidazo[1,2-c]quinazolin-9-yl)oxy)phenyl)propane-1-sulfonamide]"
5,< 100,"CC(C)S(=O)(=O)Nc1cccc(Oc2ccc3c(c2)C2=NCCN2C=N3)c1Cl [Compound 44, N-(2-Chloro-3-((2,3-dihydroimidazo[1,2-c]quinazolin-9-yl)oxy)phenyl)propane-2-sulfonamide]"
6,< 100,"CC1(C)CN2C=Nc3ccc(Oc4cccc(NS(=O)(=O)N5CC[C@@H](F)C5)c4Cl)cc3C2=N1 [Compound 53, (R)—N-(2-Chloro-3-((2,2-dimethyl-2,3-dihydroimidazo[1,2-c]quinazolin-9-yl)oxy)phenyl)-3-fluoropyrrolidine-1-sulfonamide]"
7,< 100,"CC1(C)CN2C=Nc3ccc(Oc4cccc(NS(=O)(=O)N5CCCC5)c4Cl)cc3C2=N1 [Compound 54, N-(2-Chloro-3-((2,2-dimethyl-2,3-dihydroimidazo[1,2-c]quinazolin-9-yl)oxy)phenyl)pyrrolidine-1-sulfonamide]"
8,< 100,"CCN(C)S(=O)(=O)Nc1cccc(Oc2ccc3c(c2)C2=NCCCN2C=N3)c1Cl [Compound 41, N-(2-Chloro-3-((3,4-dihydro-2H-pyrimido[1,2-c]quinazolin-10-yl)oxy)phenyl)-N-ethyl-N-methylamino-1-sulfonamide]"
9,< 100,"O=S(=O)(Nc1cccc(Oc2ccc3c(c2)C2=NCCN2C=N3)c1Cl)N1CCCC1 [Compound 48, N-(2-Chloro-3-((2,3-dihydroimidazo[1,2-c]quinazolin-9-yl)oxy)phenyl)pyrrolidine-1-sulfonamide]"
